Target: T1, hKv7.2/7.3 (Homo sapiens, UniProt O43525+O43526)
T1 construct: host or cells: HEK cells, tetracycline-inducible expression
Experiment: Kv7.2/7.3 Activation Assay, QPatch planar patch-clamp single concentration screen
Format: cell-based
Settings: increase in current over baseline, Kv7.2/Kv7.3 co-expressing HEK cells, compound concentration 3 μM, steady-state current at end of 2 s pulse to −30 mV
Procedure: The ability of compounds to potentiate K-currents in Kv7.2/7.3 containing HEK cells was assessed using planar patch-clamp on the QPatch automated screening platform.
Cell Line: The hKv7.2/7.3 cell line was obtained from Chantest (Cleveland, OH 44128) cat. #CT6147. These HEK cells will express the Kv7.2/7.3 ion channels when induced.
Cell Culture: Cells were maintained in a media containing DMEM/F12; 50/50 (GIBCO cat. #11330), 10% Fetal Bovine Serum (FBS) (GIBCO cat. #26140), 100 units/mL Penicillin-Streptomycin (GIBCO cat. #15140), 0.005 mg/mL Blasticidin (INVIVOGEN cat. #ant-bl-1), 0.5 mg/mL Geneticin (GIBCO cat. #10131), 0.1 mg/mL Zeocin (GIBCO cat. #R25001). Cells used in the electrophysiology assay were maintained in a media without Blasticidin, Geneticin and Zeocin for 2 days and channel expression was induced by adding tetracycline (BIOLINE cat. #BIO-87030) at a final concentration of […]. Cells were grown in T-175 flask to ˜75% confluency. Currents were recorded 24 hours after channel induction.
Compound Plates: Test compounds were prepared by performing serial dilutions on a Biomek NX^P (BECKMAN COULTER). Final dilutions were made in external recording solution with a final DMSO concentration of 0.1% DMSO. For single concentration screens each plate had 10 μM retigabine as a positive control and 0.1% DMSO as a negative control.
Electrophysiology: On the day of the experiment cells were washed with Hank's Balanced Salt Solution (HBBS) (GIBCO cat. #14175) and harvested with Tryple (GIBCO cat. #12604). Cells were then centrifuged at 2000 rpm for 5 minutes and resuspended in CHO—S-SFM (GIBCO cat. #12052) at […]. Cells were stirred for 30 minutes before experiments were started. External recording solution contained (in mM): NaCl (145), KCl (4), CaCl2 (2), MgCl2 (1), HEPES (10) and Glucose (10); pH was adjusted to 7.4 with NaOH and the osmolarity was adjusted to 300-305 mOsM with sucrose if necessary. Internal solution contained (in mM): KCl (125), KF (10), EGTA (5), Na2ATP (5), MgCl2 (3.2), HEPES (5); pH was adjusted to 7.2 with KOH and the osmolarity was adjusted to 298-302 mOsM with sucrose.
Potassium channel activity was measured on the QPatch HTX (Sophion Bioscience) using QPlates with 48-wells/plate. Each cell was taken as an independent experiment and only one compound was tested per well. Potassium channel activity was elicited by holding at −80 mV and stepping to −30 mV for 2 s followed by a 100 ms pulse to −120 mV.
Single concentration screen: Baseline conditions were obtained by recording 5 sweeps in the external solution only, this was repeated for three applications of the external solution. The effect of test compounds on elicited current was then assessed by recording 5 sweeps in the presence of a 3 μM compound solution. The steady-state current at the end of the 2 s pulse to −30 mV was measured to determine the fold increase from baseline.

| Structure (SMILES) | QPatch Kv7.2/7.3 Activity |
| --- | --- |
| CC(C)(O)CC(=O)Nc1nn2ccc(C(F)(F)F)cc2c1-c1cccc(Cl)c1 [Example 48, N-(3-(3-chlorophenyl)-5-(trifluoromethyl)pyrazolo [1,5-a]pyridin-2-yl)-3-hydroxy-3-methylbutanamide] | + (2.0-3.99 (+)) |
| CC(C)(O)CC(=O)Nc1nn2ccc(C(F)(F)F)cc2c1-c1ccc(OC(F)(F)F)cc1 [Example 49, 3-hydroxy-3-methyl-N-(3-(4-(trifluoromethoxy)phenyl)-5-(trifluoromethyl)pyrazolo [1,5-a]pyridin-2-yl)butanamide] | + (2.0-3.99 (+)) |
| CC(C)(O)CC(=O)Nc1nn2ccc(C(F)(F)F)cc2c1-c1ccc(C(F)(F)F)cc1 [Example 50, 3-hydroxy-3-methyl-N-(5-(trifluoromethyl)-3-(4-(trifluoromethyl)phenyl)pyrazolo [1,5-a]pyridin-2-yl)butanamide] | + (2.0-3.99 (+)) |
| Cc1ccccc1-c1c(NC(=O)CC(C)(C)O)nn2ccc(C(F)(F)F)cc12 [Example 51, 3-hydroxy-3-methyl-N-(3-(o-tolyl)-5-(trifluoromethyl)pyrazolo [1,5-a]pyridin-2-yl)butanamide] | +/− (1.2-1.99-fold (+/−)) |
| Cn1cc(-c2c(NC(=O)CC(C)(C)O)nn3ccc(C(F)(F)F)cc23)cn1 [Example 52, 3-hydroxy-3-methyl-N-(3-(1-methyl-1H-pyrazol-4-yl)-5-(trifluoromethyl)pyrazolo [1,5-a]pyridin-2-yl)butanamide] | − (<1.2-fold (−)) |
| CC(C)(O)CC(=O)Nc1nn2ccc(Cl)cc2c1C1CCC1 [Example 53, N-(5-chloro-3-cyclobutylpyrazolo[1,5-a]pyridin-2-yl)-3-hydroxy-3-methylbutanamide] | + (2.0-3.99 (+)) |
| Cn1cc(-c2c(NC(=O)CC(C)(C)O)nn3ccc(C(F)(F)F)cc23)nn1 [Example 54, 3-hydroxy-3-methyl-N-(3-(1-methyl-1H-1,2,3-triazol-4-yl)-5-(trifluoromethyl)pyrazolo [1,5-a]pyridin-2-yl)butanamide] | − (<1.2-fold (−)) |
| CC(C)(O)CC(=O)Nc1nn2ccc(C(F)(F)F)cc2c1-c1ccc(F)c(F)c1 [Example 55, N-(3-(3,4-difluorophenyl)-5-(trifluoromethyl)pyrazolo [1,5-a]pyridin-2-yl)-3-hydroxy-3-methylbutanamide] | + (2.0-3.99 (+)) |
| CC(C)(O)CC(=O)Nc1nn2ccc(C(F)(F)F)cc2c1-c1cc(F)cc(F)c1 [Example 56, N-(3-(3,5-difluorophenyl)-5-(trifluoromethyl)pyrazolo [1,5-a]pyridin-2-yl)-3-hydroxy-3-methylbutanamide] | + (2.0-3.99 (+)) |
| CC(C)(O)CC(=O)Nc1nn2ccc(Cl)cc2c1-c1ccc(F)cc1 [Example 58, N-(5-chloro-3-(4-fluorophenyl)pyrazolo [1,5-a]pyridin-2-yl)-3-hydroxy-3-methylbutanamide] | + (2.0-3.99 (+)) |
| CC(C)(C)CC(=O)Nc1nn2ccc(C#N)cc2c1-c1ccc(F)cc1 [Example 59, N-(5-cyano-3-(4-fluorophenyl)pyrazolo [1,5-a]pyridin-2-yl)-3,3-dimethylbutanamide] | + (2.0-3.99 (+)) |
| CC(C)(C)CC(=O)Nc1nn2cccc(F)c2c1C1CCC1 [Example 60, N-(3-cyclobutyl-4-fluoropyrazolo [1,5-a]pyridin-2-yl)-3,3-dimethylbutanamide] | ++ (4.0-5.99 (++)) |
| CC(C)(O)CC(=O)Nc1nn2cccc(F)c2c1C1CCC1 [Example 61, N-(3-cyclobutyl-4-fluoropyrazolo[1,5-a]pyridin-2-yl)-3-hydroxy-3-methylbutanamide] | +/− (1.2-1.99-fold (+/−)) |
| C[C@](O)(CC(=O)Nc1nn2ccc(Cl)cc2c1-c1ccc(F)cc1)C(F)(F)F [Example 62, (S)-N-(5-chloro-3-(4-fluorophenyl)pyrazolo [1,5-a]pyridin-2-yl)-4,4,4-trifluoro-3-hydroxy-3-methylbutanamide] | + (2.0-3.99 (+)) |
| C[C@@](O)(CC(=O)Nc1nn2ccc(Cl)cc2c1-c1ccc(F)cc1)C(F)(F)F [Example 63, (R)-N-(5-chloro-3-(4-fluorophenyl)pyrazolo [1,5-a]pyridin-2-yl)-4,4,4-trifluoro-3-hydroxy-3-methylbutanamide] | + (2.0-3.99 (+)) |
| CC(C)(F)CC(=O)Nc1nn2ccc(C(F)(F)F)cc2c1C1CCC1 [Example 64, N-(3-cyclobutyl-5-(trifluoromethyl)pyrazolo [1,5-a]pyridin-2-yl)-3-fluoro-3-methylbutanamide] | +++ (>6-fold (+++)) |
| CC(C)(C)CC(=O)Nc1nn2c(C(F)F)cccc2c1C1CCC1 [Example 65, N-(3-cyclobutyl-7-(difluoromethyl)pyrazolo [1,5-a]pyridin-2-yl)-3,3-dimethylbutanamide] | ++ (4.0-5.99 (++)) |
| CC(C)(O)CC(=O)Nc1nn2c(-c3ccc(F)cc3)cccc2c1C1CCC1 [Example 66, N-(3-cyclobutyl-7-(4-fluorophenyl)pyrazolo [1,5-a]pyridin-2-yl)-3-hydroxy-3-methylbutanamide] | − (<1.2-fold (−)) |
| Cn1ccc(-c2c(NC(=O)CC(C)(C)O)nn3ccc(C(F)(F)F)cc23)n1 [Example 67, 3-hydroxy-3-methyl-N-(3-(1-methyl-1H-pyrazol-3-yl)-5-(trifluoromethyl)pyrazolo [1,5-a]pyridin-2-yl)butanamide] | − (<1.2-fold (−)) |
| CC(C)(O)CC(=O)Nc1nn2ccc(Cl)cc2c1-c1ccc(OC(F)(F)F)cc1 [Example 68, N-(5-chloro-3-(4-(trifluoromethoxy)phenyl)pyrazolo[1,5-a]pyridin-2-yl)-3-hydroxy-3-methylbutanamide] | + (2.0-3.99 (+)) |
| CC(C)(C)OC(=O)Nc1nn2ccc(Br)cc2c1C1CCC1 [Example 69, tert-butyl (5-bromo-3-cyclobutylpyrazolo[1,5-a]pyridin-2-yl)carbamate] | + (2.0-3.99 (+)) |
| CC(C)(O)CC(=O)Nc1nn2c(C3CC3)cccc2c1C1CCC1 [Example 70, N-(3-cyclobutyl-7-cyclopropylpyrazolo [1,5-a]pyridin-2-yl)-3-hydroxy-3-methylbutanamide] | + (2.0-3.99 (+)) |
| C[C@](O)(CC(=O)Nc1nn2ccc(Cl)cc2c1-c1ccc(F)cc1)c1ccccc1 [Example 71, (S)-N-(5-chloro-3-(4-fluorophenyl)pyrazolo [1,5-a]pyridin-2-yl)-3-hydroxy-3-phenylbutanamide] | + (2.0-3.99 (+)) |
| CC(C)(O)CC(=O)Nc1nn2c(C(F)F)cccc2c1C1CCC1 [Example 72, N-(3-cyclobutyl-7-(difluoromethyl)pyrazolo [1,5-a]pyridin-2-yl)-3-hydroxy-3-methylbutanamide] | +/− (1.2-1.99-fold (+/−)) |
| C[C@@](O)(CC(=O)Nc1nn2cccc(F)c2c1C1CCC1)c1ccccn1 [Example 73, (R)-N-(3-cyclobutyl-4-fluoropyrazolo [1,5-a]pyridin-2-yl)-3-hydroxy-3-(pyridin-2-yl)butanamide] | − (<1.2-fold (−)) |
| CC(C)(C)CC(=O)Nc1nn2ccc(C3(O)CCC3)cc2c1C1CCC1 [Example 74, N-(3-cyclobutyl-5-(1-hydroxycyclobutyl)pyrazolo[1,5-a]pyridin-2-yl)-3,3-dimethylbutanamide] | ++ (4.0-5.99 (++)) |
| CC(C)(C)CC(=O)Nc1nn2c(C(F)(F)F)cccc2c1-c1ccc(F)cc1 [Example 75, N-(3-(4-fluorophenyl)-7-(trifluoromethyl)pyrazolo [1,5-a]pyridin-2-yl)-3,3-dimethylbutanamide] | − (<1.2-fold (−)) |
| CC(C)(O)CC(=O)Nc1nn2c(C(F)(F)F)cccc2c1-c1ccc(F)cc1 [Example 76, N-(3-(4-fluorophenyl)-7-(trifluoromethyl)pyrazolo [1,5-a]pyridin-2-yl)-3-hydroxy-3-methylbutanamide] | + (2.0-3.99 (+)) |

Source: patent US20250066351A1, “PYRAZOLO[1,5-A]PYRIDIN-2,3-YL AMIDES AS KV7 CHANNEL ACTIVATORS” (Biohaven Therapeutics Ltd., priority 2022, published 2025)
